In patent publication US11999702B1, “4,5-bis(4-chlorophenyl)-1-hexyl-2-(3,4-dimethoxyphenyl)-1H-imidazole as an antimicrobial compound” (KING FAISAL UNIVERSITY, priority 2023, dated 2024):

What was measured:
Format in all cases: cell-based
Conditions in all cases: after 10, 20, 40 and 60 minutes at all dilutions 1:100, 1:200, 1:400, 1:800
Escherichia coli = experiment: Antimicrobial testing by agar dilution, Escherichia coli
Description: (§1) The antimicrobial properties of the 4,5-bis(4-chlorophenyl)-1-hexyl-2-(3,4-dimethoxyphenyl)-1H-imidazole (5) were studied by the method of agar dilution. Test solutions of each compound were prepared in concentration of 1% using dimethylformamide as a solvent then they are diluted in physiological solution to obtain the final experimental dilutions 1:100, 1:200, 1:400, 1:800. The effect of these substances were compared with furacillin in a controllable study. The testing microbes used were gram positive bacteria Staphylococcus aureus, gram negative bacteria Escherichia coli, Pseudomonas aeruginosa and Candida albicans fungi were taken. The experiments used for this survey were meat-pentonlu agar (EPA) for cultivation of bacteria and Saburo environment for fungi. Each experiment used 1 ml of test solution on each plate 500 min. Add 2 drops of emulsified with microbes feel. All experimental samples were taken from the agar after 10, 20, 40, 60 minutes in the environment on the basis of Patrk planted. Bacteria were cultivated at a temperature of 37° C. for 1 day and the mushroom was kept in a thermostat for […] at a temperature of 28° C. in the. Then results were checked.

Candida albicans = experiment: Antimicrobial testing by agar dilution, Candida albicans
Description: as §1

Staphylococcus aureus = experiment: Antimicrobial testing by agar dilution, Staphylococcus aureus
Description: as §1

Pseudomonas aeruginosa = experiment: Antimicrobial testing by agar dilution, Pseudomonas aeruginosa
Description: as §1

Measured: inhibition activity

CCCCCCn1c(-c2ccc(OC)c(OC)c2)nc(-c2ccc(Cl)cc2)c1-c1ccc(Cl)cc1 [4,5-bis(4-chlorophenyl)-1-hexyl-2-(3,4-dimethoxyphenyl)-1H-imidazole]
highest inhibition activity: Escherichia coli | Candida albicans | Staphylococcus aureus | Pseudomonas aeruginosa
